Source: ChEMBL document CHEMBL3045032, “Triptolide suppresses lipopolysaccharide-induced activity of toll-like receptor 4 in mouse macrophage cell line RAW 264.7” (Med Chem Res, 2012)
Activity calls are given as the source filed them.

Experiments:
Assay type in all cases: functional, cell-based
[1] = tested on: RAW264.7; assay: Inhibition of LPS-induced TLR4 expression in Mus musculus (mouse) RAW264.7 cells pretreated for 1 hr before treatment with 100 ng/ml LPS for 6 hr by RT-PCR analysis
[2] = tested on: RAW264.7; assay: Inhibition of LPS-induced IL-6 level in Mus musculus (mouse) RAW264.7 cells pretreated for 1 hr before treatment with 100 ng/ml LPS for 6 hr by ELISA
[3] = tested on: RAW264.7; assay: Inhibition of LPS-induced TLR4 expression in Mus musculus (mouse) RAW264.7 cells pretreated for 1 hr before treatment with 100 ng/ml LPS for 6 hr by Western blot analysis
[4] = tested on: RAW264.7; assay: Effect on HSP70 mRNA level in Mus musculus (mouse) RAW264.7 cells pretreated for 1 hr before treatment with 100 ng/ml LPS for 6 hr by RT-PCR analysis
[5] = tested on: RAW264.7; assay: Inhibition of LPS-induced TNF-alpha level in Mus musculus (mouse) RAW264.7 cells pretreated for 1 hr before treatment with 100 ng/ml LPS for 6 hr by ELISA
[6] = tested on: RAW264.7; assay: Effect on HSP70 protein level in Mus musculus (mouse) RAW264.7 cells pretreated for 1 hr before treatment with 100 ng/ml LPS for 6 hr by RT-PCR analysis

CC(C)[C@]12O[C@H]1[C@@H]1O[C@]13[C@]1(O[C@H]1C[C@H]1C4=C(CC[C@@]13C)C(=O)OC4)[C@@H]2O
active: inhibition [1] Dose-dependent effect | inhibition [2] Dose-dependent effect | inhibition [3] Dose-dependent effect | inhibition [5] Dose-dependent effect
inactive: Activity [4] | Activity [6]
